# Measured values reported in patent publication US20230107642A1 (Erasca, Inc., priority 2020, published 2023).
# Molecular target: T1, Cys12 of the KRAS 4B G12C protein (Homo sapiens, UniProt P01116, G12C)
# T1 construct: This protein contained 188 amino acids in total, including an N-terminal 6-Histidine tag; made in house; host or cells: E. coli BL21
# Experiment: In vitro covalent adduct formation (CAF) assay, LC-MS intact mass
# Format: binding
# Conditions: 10 uM compound, 60 min
# Summary of the method: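 GDP-loaded (>95%) His-TEV-tagged KRAS 4B G12C (residues 1–169), 5 μM in TBS pH 7.4, incubated with 10 μM compound (4% DMSO) at 22° C for one hour. Intact-protein LC-MS gave free:adduct ratios, reported as percent protein modified; duplicate runs.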
row,SMILES,% CAF 10 uM @ 60 min [%]
1,"C=CC(=O)N1C[C@H](C)N(c2nc(=O)n3c4c(c(-c5cc(Cl)c(F)cc5F)c(C(F)(F)F)cc24)SC[C@@H]3CN2C[C@@H]3C[C@H]2CO3)C[C@H]1C (atropisomer, axis not shown) [Example 1334, (3S,10R)-3-(((1S,4S)-2-oxa-5-azabicyclo[2.2.1]heptan-5-yl)methyl)-7-((2S,5R)-4-acryloyl-2,5-dimethylpiperazin-1-yl)-10-(5-chloro-2,4-difluorophenyl)-9-(trifluoromethyl)-2,3-dihydro-5H-[1,4]thiazino[2,3,4-ij]quinazolin-5-one]",80
2,"C=CC(=O)N1CCN(c2nc(=O)n3c4c(c(-c5c(F)cccc5F)c(C(F)(F)F)cc24)SC[C@@H]3COC)CC1 [Example 1377, (S)-7-(4-acryloylpiperazin-1-yl)-10-(2,6-difluorophenyl)-3-(methoxymethyl)-9-(trifluoromethyl)-2,3-dihydro-5H-[1,4]thiazino[2,3,4-ij]quinazolin-5-one]",95.5
3,"C=CC(=O)N1[C@H](C)CN(c2nc(=O)n3c4c(c(-c5cc(Cl)c(F)cc5F)c(C(F)(F)F)cc24)SC[C@@H]3CN2C[C@@H]3C[C@H]2CO3)C[C@@H]1C (atropisomer, axis not shown) [Example 1332, (3S,10S)-3-(((1S,4S)-2-oxa-5-azabicyclo[2.2.1]heptan-5-yl)methyl)-7-((3S,5R)-4-acryloyl-3,5-dimethylpiperazin-1-yl)-10-(5-chloro-2,4-difluorophenyl)-9-(trifluoromethyl)-2,3-dihydro-5H-[1,4]thiazino[2,3,4-ij]quinazolin-5-one]",87

# The next lines start with the values.
row,% CAF 10 uM @ 60 min [%],SMILES
1,45,"C=CC(=O)N1C[C@H](C)N(c2nc(=O)n3c4c(c(-c5cc(Br)c(F)cc5F)c(C(F)(F)F)cc24)SCC2(COC2)C3)C[C@H]1C (atropisomer, axis not shown) [Example 1446, (S)-8′-((2S,5R)-4-Acryloyl-2,5-dimethylpiperazin-1-yl)-11′-(5-bromo-2,4-difluorophenyl)-10′-(trifluoromethyl)-2′H,4′H,6′H-spiro[oxetane-3,3′-[1,4]thiazepino[2,3,4-ij]quinazolin]-6′-one]"
2,95,"C=CC(=O)N1C[C@H](C)N(c2nc(=O)n3c4c(c(-c5cc(Br)c(F)cc5F)c(C(F)(F)F)cc24)SCC2(COC2)C3)C[C@H]1C (atropisomer, axis not shown) [Example 1445, (R)-8′-((2S,5R)-4-Acryloyl-2,5-dimethylpiperazin-1-yl)-11′-(5-bromo-2,4-difluorophenyl)-10′-(trifluoromethyl)-2′H,4′H,6′H-spiro[oxetane-3,3′-[1,4]thiazepino[2,3,4-ij]quinazolin]-6′-one]"
3,88.4,"C=CC(=O)N1C[C@H](C)N(c2nc(=O)n3c4c(c(-c5ccc(F)c(Cl)c5)c(C(F)(F)F)cc24)SC[C@@H]3CN2CCN(CC)CC2)C[C@H]1C [Example 1380, (S)-7-((2S,5R)-4-acryloyl-2,5-dimethylpiperazin-1-yl)-10-(3-chloro-4-fluorophenyl)-3-((4-ethylpiperazin-1-yl)methyl)-9-(trifluoromethyl)-2,3-dihydro-5H-[1,4]thiazino[2,3,4-ij]quinazolin-5-one]"

# Same assay, conditions: 10 uM compound, 60 min incubation
row,SMILES,% CAF 10 uM @ 60 min [%]
1,"C=CC(=O)N1[C@H](C)CN(c2nc(=O)n3c4c(c(-c5cc(Cl)c(F)cc5F)c(C(F)(F)F)cc24)SC[C@@H]3COC)C[C@@H]1C (single isomer, unassigned) [Example 1139]",95.9
2,"C=CC(=O)N1CCN(c2nc(=O)n3c4c(c(-c5cccc6cnn(C)c56)c(C(F)(F)F)cc24)SC[C@@H]3COC)CC1 (atropisomer, axis not shown) [Example 1119, (3S,10S)-7-(4-acryloylpiperazin-1-yl)-3-(methoxymethyl)-10-(1-methyl-1H-indazol-7-yl)-9-(trifluoromethyl)-2,3-dihydro-5H-[1,4]thiazino[2,3,4-ij]quinazolin-5-one]",99.4

# Second part, the compound after the results:
row,% CAF 10 uM @ 60 min [%],SMILES
1,96.2,"C=CC(=O)N1[C@H](C)CN(c2nc(=O)n3c4c(c(-c5cc(Cl)c(F)cc5F)c(C(F)(F)F)cc24)SCC2(COC2)C3)C[C@@H]1C (atropisomer, axis not shown) [Example 1124, (R)-8′-((3S,5R)-4-acryloyl-3,5-dimethylpiperazin-1-yl)-11′-(5-chloro-2,4-difluorophenyl)-10′-(trifluoromethyl)-2′H,4′H,6′H-spiro[oxetane-3,3′-[1,4]thiazepino [2,3,4-ij]quinazolin]-6′-one]"
2,88.8,"C=CC(=O)N1[C@H](C)CN(c2nc(=O)n3c4c(c(-c5cc(Cl)c(F)cc5F)c(C(F)(F)F)cc24)SCC2(COC2)C3)C[C@@H]1C [Example 1100, 8′-((3S,5R)-4-acryloyl-3,5-dimethylpiperazin-1-yl)-11′-(5-chloro-2,4-difluorophenyl)-10′-(trifluoromethyl)-2′H,4′H,6′H-spiro[oxetane-3,3′-[1,4]thiazepino [2,3,4-ij]quinazolin]-6′-one]"
3,94.5,"C=CC(=O)N1C[C@H](C)N(c2nc(=O)n3c4c(c(-c5cccc6cnn(C)c56)c(C(F)(F)F)cc24)SC[C@@H]3COC)C[C@H]1C (atropisomer, axis not shown) [Example 1102, (3S,10S)-7-((2S,5R)-4-acryloyl-2,5-dimethylpiperazin-1-yl)-3-(methoxymethyl)-10-(1-methyl-1H-indazol-7-yl)-9-(trifluoromethyl)-2,3-dihydro-5H-[1,4]thiazino[2,3,4-ij]quinazolin-5-one]"

# Same assay, conditions: 10 μM compound, after 1 hour
row,CAF (% after 1 hour) [%],SMILES
1,94,"C=CC(=O)N1[C@H](C)CN(c2nc(=O)n3c4c(c(-c5ncc(C(F)(F)F)s5)c(C(F)(F)F)cc24)SC[C@@H](OC)C3)C[C@@H]1C [Example 1216, (S)-8-((3S,5R)-4-acryloyl-3,5-dimethylpiperazin-1-yl)-3-methoxy-10-(trifluoromethyl)-11-(5-(trifluoromethyl)thiazol-2-yl)-3,4-dihydro-2H,6H-[1,4]thiazepino[2,3,4-ij]quinazolin-6-one]"
2,49,"C=CC(=O)N1CCN(c2nc(=O)n3c4c(c(-c5cc(Cl)c(F)cc5F)c(C(F)(F)F)cc24)SC[C@@H](OC)C3)[C@@H]2CSC[C@@H]21 [Example 1214, (3S)-8-((4aR,7aS)-4-acryloylhexahydrothieno[3,4-b]pyrazin-1(2H)-yl)-11-(5-chloro-2,4-difluorophenyl)-3-methoxy-10-(trifluoromethyl)-3,4-dihydro-2H,6H-[1,4]thiazepino[2,3,4-ij]quinazolin-6-one]"

row,SMILES,CAF (% after 1 hour) [%]
1,"C=CC(=O)N1C2COCC1CN(c1nc(=O)n3c4c(c(-c5cc(Cl)c(F)cc5F)c(C(F)(F)F)cc14)SC[C@@H](OC)C3)C2 [Example 1210, (3S)-8-(9-acryloyl-3-oxa-7,9-diazabicyclo[3.3.1]nonan-7-yl)-11-(5-chloro-2,4-difluorophenyl)-3-methoxy-10-(trifluoromethyl)-3,4-dihydro-2H,6H-[1,4]thiazepino[2,3,4-ij]quinazolin-6-one]",94

# Same assay, conditions: after 60 min
row,CAF (% binding after 60 min) [%],SMILES
1,95,"C=CC(=O)N1[C@H](C)CN(c2nc(=O)n3c4c(c(-c5ccc(F)c(Cl)c5)c(C(F)(F)F)cc24)SC[C@H](OCOC)C3)C[C@@H]1C [Example 1013, (R)-8-((3S,5R)-4-acryloyl-3,5-dimethylpiperazin-1-yl)-11-(3-chloro-4-fluorophenyl)-3-(methoxymethoxy)-10-(trifluoromethyl)-3,4-dihydro-2H,6H-[1,4]thiazepino[2,3,4-ij]quinazolin-6-one]"
